Patent publication US10301317B2, “Inhibitors of ERK and methods of use” (Kura Oncology, Inc., priority 2013, dated 2019)

Key:
[1] = test system: phospho-p90 RSK (RSK1 Thr359/Ser363) in A375 (Braf V600E) cells; experiment: Phospho-p90 RSK ELISA using A375 (Braf V600E) cells; assay type: cell-based; settings: Homo sapiens, A-375, 2 hours compound treatment, read-out: Cellular Phospho-p90RSK IC50
[2] = test system: A375 cells; experiment: Tumor cell line proliferation assay (CellTiter Glo), A375; assay type: cell-based; settings: Homo sapiens, A-375, 96 h, read-out: A375 (V599E) Cell Proliferation IC50

SMILES	IC50 [1]	IC50 [2]
Cc1cc(-c2n[nH]c3cc4c(cc23)CN([C@@H]2CN(CC(F)(F)F)C[C@H]2c2ccccc2)C(=O)N4)cc(C)n1 [Example 242]	≤ 0.25 µM	0.25 to 1 µM
Cc1cc(-c2n[nH]c3cc4c(cc23)CN([C@@H]2CCCN(Cc3cccc(F)c3)C2)C(=O)N4)ccn1 [Example 184]	≤ 0.25 µM	≤ 0.25 µM
Cc1cc(-c2n[nH]c3cc4c(cc23)CN([C@@H]2CN(C)C[C@H]2c2ccccc2)C(=O)N4)cc(C)n1 (racemic) [Example 248]	≤ 0.25 µM	≤ 0.25 µM
Cc1cc(-c2n[nH]c3cc4c(cc23)CN(C2CCC2)C(=O)N4)ccn1 [Example 243]	≤ 0.25 µM	≤ 0.25 µM
Cc1ncc(-c2n[nH]c3cc4c(cc23)CN([C@@H]2CCCN(Cc3ccccc3)C2)C(=O)N4)cn1 [Example 292]	≤ 0.25 µM	≤ 0.25 µM
CC(c1ccccc1)c1cc2cc3c(-c4ccc(N5CCOCC5)nc4)n[nH]c3cc2[nH]c1=O (stereo not drawn) [Example 324]	≤ 0.25 µM	≤ 0.25 µM
Cc1cc(-c2n[nH]c3cc4c(cc23)CN(CC2CCOCC2)C(=O)N4)ccn1 [Example 211]	≤ 0.25 µM	0.25 to 1 µM
COc1ncc(-c2n[nH]c3cc4c(cc23)CN([C@@H]2CCCN(Cc3ccccc3)C2)C(=O)N4)cn1 [Example 104]	≤ 0.25 µM	≤ 0.25 µM
COc1ccc(-c2n[nH]c3cc4c(cc23)CN(Cc2cc(F)cc(F)c2)C(=O)N4)cn1 [Example 92]	≤ 0.25 µM	0.25 to 1 µM
Cc1cc(-c2n[nH]c3cc4c(cc23)CN([C@@H]2CCCN(Cc3ccc(F)cc3)C2)C(=O)N4)ccn1 [Example 151]	> 1 µM	≤ 0.25 µM
COc1cc(-c2n[nH]c3cc4c(cc23)CN([C@@H]2CCCN(Cc3ccc(F)cc3F)C2)C(=O)N4)ccn1 [Example 271]	≤ 0.25 µM	≤ 0.25 µM
Cc1cc(-c2n[nH]c3cc4c(cc23)CN(C2CCC(F)(F)CC2)C(=O)N4)ccn1 [Example 224]	≤ 0.25 µM	0.25 to 1 µM
Cc1cc(-c2n[nH]c3cc4c(cc23)CN([C@@H]2CCCN(CC(F)(F)F)C2)C(=O)N4)cc(C)n1 [Example 244]	≤ 0.25 µM	≤ 0.25 µM
CC(c1ccccc1)c1cc2cc3c(-c4ccnc(N5CCOCC5)c4)n[nH]c3cc2[nH]c1=O (stereo not drawn) [Example 325]	≤ 0.25 µM	≤ 0.25 µM
Cc1cc(-c2n[nH]c3cc4c(cc23)CN(Cc2ccc(F)c(Cl)c2)C(=O)N4)cc(C)n1 [Example 226]	≤ 0.25 µM	0.25 to 1 µM
CC(c1ccccc1)c1cc2cc3c(-c4ccnnc4)n[nH]c3cc2[nH]c1=O (stereo not drawn) [Example 323]	≤ 0.25 µM	0.25 to 1 µM
Cc1cc(-c2n[nH]c3cc4c(cc23)CN(Cc2ccccc2)C(=O)N4)cc(C)n1 [Example 229]	≤ 0.25 µM	0.25 to 1 µM
Cc1cc(-c2n[nH]c3cc4c(cc23)CN([C@@H]2CCN(c3ccc(F)cn3)C2)C(=O)N4)ccn1 [Example 257]	0.25 to 1 µM	> 1 µM
CC(c1ccccc1)c1cc2cc3c(NC4CCOCC4)n[nH]c3cc2[nH]c1=O (stereo not drawn) [Example 338]	≤ 0.25 µM	≤ 0.25 µM
Cc1cc(-c2n[nH]c3cc4c(cc23)CN([C@@H]2CN(C(C)C)C[C@H]2c2ccccc2)C(=O)N4)ccn1 (racemic) [Example 279]	≤ 0.25 µM	≤ 0.25 µM
COc1ccc(-c2n[nH]c3cc4c(cc23)CN([C@@H]2CCCN(Cc3ccc(F)cc3F)C2)C(=O)N4)cn1 [Example 273]	≤ 0.25 µM	≤ 0.25 µM
CC(c1ccccc1)c1cc2cc3c(-c4cccnc4)n[nH]c3cc2[nH]c1=O (stereo not drawn) [Example 330]	≤ 0.25 µM	0.25 to 1 µM
Cc1cc(-c2n[nH]c3cc4c(cc23)CN([C@@H]2CN(C)C[C@H]2c2ccc(F)cc2)C(=O)N4)cc(C)n1 (racemic) [Example 305]	≤ 0.25 µM	≤ 0.25 µM
Cc1cc(-c2n[nH]c3cc4c(cc23)CN([C@@H]2CCCN(Cc3cc(F)ccc3F)C2)C(=O)N4)ccn1 [Example 187]	≤ 0.25 µM	≤ 0.25 µM
